Test results reported in patent US20080009025A1, “PROTEIN KINASE REGULATION” (priority 1999, published 2008).
Where a SMILES comes first, the peptide text is derived from it.

Legend:
PDK1 [1] = settings: ref [24], cited from earlier work
PDK1 [2] = biological target: T1, PDK1 (Homo sapiens, UniProt O15530); assay: Phosphorylation of GST-p70 S6K-T2 by PDK1 in vitro (32P autoradiography); format: biochemical; set-up: made in house; host or cells: 293 cells or E. coli; settings: GST-PDK1 50 nM
T1 sequence (O15530 1-556): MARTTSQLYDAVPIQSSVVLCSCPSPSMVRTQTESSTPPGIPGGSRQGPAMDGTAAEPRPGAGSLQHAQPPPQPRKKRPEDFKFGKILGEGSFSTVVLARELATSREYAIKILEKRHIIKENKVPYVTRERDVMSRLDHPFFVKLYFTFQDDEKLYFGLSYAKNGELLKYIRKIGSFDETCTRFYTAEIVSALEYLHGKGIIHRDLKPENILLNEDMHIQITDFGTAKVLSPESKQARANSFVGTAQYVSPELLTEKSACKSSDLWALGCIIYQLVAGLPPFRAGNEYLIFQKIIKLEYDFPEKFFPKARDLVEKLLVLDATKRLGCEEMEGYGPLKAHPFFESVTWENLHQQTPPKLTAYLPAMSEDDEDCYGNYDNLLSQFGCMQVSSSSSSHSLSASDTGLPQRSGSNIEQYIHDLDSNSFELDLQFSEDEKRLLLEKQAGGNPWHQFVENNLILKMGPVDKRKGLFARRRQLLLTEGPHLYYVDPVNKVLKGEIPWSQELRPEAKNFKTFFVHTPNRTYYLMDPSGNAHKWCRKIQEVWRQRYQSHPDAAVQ
Experimental: FIG. 1. PIF prevents PDK1 from phosphorylating p70 S6K in vitro. GST-p70 S6K lacking the C-terminal 104 amino acids (GST-p70 S6KT2) (1 μg) was incubated for 30 min at 30° C. with Mg [γ^32P] ATP and GST-PDK1 (50 nM) in the presence or absence of either wild type (wt) GST-PIF or D978A GST-PIF (1.5 μM), or the indicated PIF peptides (4 μM) in a final volume of 20 μl. The reactions were terminated by making the solutions 1% in SDS, the samples subjected to SDS-polyacylamide gel electrophoresis, and the phosphorylation assessed by autoradiography of the gel. The position in the gel where GST-p70 S6KT2 (73 kDa) migrates is indicated with an arrow. The only other ^32P-labelled protein on the gel which is not shown, corresponded to autophosphorylation of PDK1 and contained ˜10 fold lower levels of ^32P-radioactivity than that of the GST-p70 S6T2 phosphorylated by PDK1 in the absence of PIF. A high amount of PDK1 is used in this experiment to achieve a near maximal phosphorylation of GST-p70 S6T2. If the reactions were carried out at a 10-fold lower concentration of PDK1 under conditions where the phosphorylation of GST-p70 S6T2 by PDK1 is linear with time and the amount of substrate used, then PIF still prevented the phosphorylation of GST-p70 S6T2 (data not shown). wt indicates wild type and PSer indicates phospho-serine. The results of a duplicate experiment for each condition are shown, and similar findings were obtained in five separate experiments.
Preparation of insect cell His-p70 S6K. p70 S6K with a His-epitope tag at its N-terminus lacking the carboxy terminal 104 residues is termed p70 S6K-T2. In order to prepare wild type and the mutant 412E-p70 S6K-T2 the cDNA for these constructs was amplified by PCR from the pMT2 vector encoding these forms of p70 S6K [6] using the following oligonucleotides: 5′-AGGATCCACCATGCACCATCACCATCACCATATGAGGCGAGCAAGGAGGCGG-3′ and 5′-GCGGCCGCTCAACTTTCAAGTACAGATGGAGCC-3′. The PCR products were then subcloned into the BamH1/Not1 sites of the pFASTBAC 1 vector and this vector was used to generate recombinant baculovirus using the Bac-to-Bac system (Life Technologies Inc). The resulting viruses, encoded p70 S6K-T2 or 412E-p70 S6K-T2 with an N-terminal hexahistidine sequence, and was used to infect Sf21 cells (1.5×10^6/m) at a multiplicity of infection of 5. The infected cells were harvested 72 h post-infection and the His-p70 S6K proteins purified by Ni^2+/NTA (nitrilotriacetic acid)-agarose chromatography as described previously for PKBβ [25]. […]

| effect on phosphorylation of GST-p70 S6K-T2 by PDK1 (PDK1 [2]; GST fusion 1.5 μM) | Compound | reduced affinity for PDK1 compared with wild type PIFtide (PDK1 [1]) [fold] | effect on phosphorylation of GST-p70 S6K-T2 by PDK1 (PDK1 [2]; peptide 4 μM) | Kd (PDK1 [1]; read-out: affinity of PDK1 for PIFtide (Kd)) [nM] |
| --- | --- | --- | --- | --- |
|  | CC[C@H](C)[C@H](NC(=O)[C@H](CCCNC(=N)N)NC(=O)[C@@H]1CCCN1C(=O)[C@H](CCC(=O)O)NC(=O)[C@@H](N)CCCNC(=N)N)C(=O)N[C@@H](CC(C)C)C(=O)N[C@@H](CO)C(=O)N[C@@H](CCC(=O)O)C(=O)N[C@@H](CCC(=O)O)C(=O)N[C@@H](CCC(=O)O)C(=O)N[C@@H](CCC(N)=O)C(=O)N[C@@H](CCC(=O)O)C(=O)N[C@@H](CCSC)C(=O)N[C@@H](Cc1ccccc1)C(=O)N[C@@H](CCCNC(=N)N)C(=O)N[C@@H](CC(=O)O)C(=O)N[C@@H](Cc1ccccc1)C(=O)N[C@@H](C)C(=O)N[C@@H](Cc1ccc(O)cc1)C(=O)N[C@@H](CC(C)C)C(=O)N[C@@H](C)C(=O)N[C@@H](CC(=O)O)C(=O)N[C@@H](Cc1c[nH]c2ccccc12)C(=O)N[C@@H](CS)C(=O)O [D978A-PIFtide] (H-REPRILSEEEQEMFRDFAYLADWC-OH; N-terminus and C-terminus assumed) | 10 | poorly inhibited |  |
|  | CC[C@H](C)[C@H](NC(=O)[C@H](Cc1ccc(O)cc1)NC(=O)[C@H](CC(=O)O)NC(=O)[C@H](Cc1ccccc1)NC(=O)[C@H](CC(=O)O)NC(=O)[C@H](CCCNC(=N)N)NC(=O)[C@H](Cc1ccccc1)NC(=O)[C@H](CCSC)NC(=O)[C@H](CCC(=O)O)NC(=O)[C@H](CCC(N)=O)NC(=O)[C@H](CCC(=O)O)NC(=O)[C@H](CCC(=O)O)NC(=O)[C@H](CCC(=O)O)NC(=O)[C@H](CO)NC(=O)[C@H](CC(C)C)NC(=O)[C@@H](NC(=O)[C@H](CCCNC(=N)N)NC(=O)[C@@H]1CCCN1C(=O)[C@H](CCC(=O)O)NC(=O)[C@@H](N)CCCNC(=N)N)[C@@H](C)CC)C(=O)N[C@@H](C)C(=O)N[C@@H](CC(=O)O)C(=O)N[C@@H](Cc1c[nH]c2ccccc12)C(=O)N[C@@H](CS)C(=O)O [PIFtide] (H-REPRILSEEEQEMFRDFDYIADWC-OH; N-terminus and C-terminus assumed) |  | unable to phosphorylate | ~300 |
| unable to phosphorylate | GST-PIF: glutathione S-transferase fused to the last 77 residues of PRK2 (PIF) |  |  |  |
